Test results from patent US20080299222A1, “Bioactive agrichemical compositions and use thereof” (priority 2007, published 2008).

Test system: E. amylovora 153N
Assay: Fire blight on Snow Drift crabapple trees (Example 287)
Format: in vivo, Erwinia amylovora
Conditions: rate 5 lbs/a (2.27 kg/a), mean of the counts, 100 blossoms per subplot
Protocol: A study of the bioefficacy of the various agrichemical compositions, including bioactive acid solutions and blends thereof with an antibiotic agrichemical, were evaluated to assess their bioefficacy against fire blight on crabapples. The study was conducted on 5 year old Snow Drift crabapple trees, with each of the compositions being applied to ten trees in two-subplots of five trees, four different times: at 100% bloom—day 1, a second application was made on day 4, a third on day 11 and a final treatment on day 19. The trees were inoculated with E. amylovora 153N at a concentration of 4×10^6 cells per milliliter on day 1, following drying of the treatment, with the inoculation being repeated on day 13. Evaluation for fire blight was completed on 100 blossoms for each of the subplots on day 12, day 19 and day 27. Additionally, the incidence of shoot infection and the length of cankers were evaluated on day 63.
The test compositions were prepared by forming solutions of the bioactive agents. Two different dilutions of the MI2 bioactive were evaluated; the first employing 94.46 ml/gallon (25 ml/l) of water (5 ppm of each metal) and the second 188.9 ml/gallon (50 ml/l) of water (10 ppm of each metal). A streptomycin product (17% concentrated) was diluted at a rate of 0.049 lbs/gallon ([…]) (200 ppm). Finally, copper hydroxide was diluted at a rate of 1 lb/gallon (119.8 g/l). Each of the compositions and blends were spray applied at a rate of 50 gallons (189.3 l) pre acre. The results are presented as the mean of the counts.

SMILES: [Cu+2].[OH-].[OH-] [copper hydroxide]
- Blossom Incidence (Day 12): 3.1
- Blossom Incidence (Day 19): 2.2
- Blossom Incidence (Day 27): 9.0
